We go through 11 molecules from patent US10766912B2 (priority 2017, dated 2020).

Assay type in all cases: cell-based
In series [1] the test system is HCV GT1a wild-type replicon. The series can be described thus: Assay Example 1: activity against HCV GT1a wild-type replicon. To be noted: Hepatitis C virus, 72 h, Huh 7 cells, 3 days, luciferase. How it is done:
(§1) Cells: Huh 7 cell line and HCV GT1b/3a and GT1b/6a NS5A chimeric replicons and GT1b and GT1a wild-type replicon RNA.
(§2) Treatment of Compound: According to the assay final concentrations of the compounds in Table 2, DMSO stock solutions of the compounds were diluted and then added to a 96-well assay plate. The final concentration of DMSO was 0.5%.
(§3) The preparation of cells: After replicon plasmid DNA was linearized with a corresponding restriction enzyme, the DNA was transcribed into RNA by using T7RNA polymerase. Replicon RNA prepared by transcription in vitro was transfected into Huh-7 cells by electroporation. Transfected cells were seeded at a density of 10,000 cells per well into the 96-well assay plate containing the diluted compounds, and then the plate was placed in a 37° C. incubator with 5% CO2 and cultured for 3 days.
(§4) Drug activity assay: Luminescence signal value (RLU) was detected with Envision within 15 minutes using the luciferase assay reagent Britelite plus, and the original data (RLU) was used for the calculation of the activity of the compounds.
(§5) The activity of the compounds was calculated by using the equation below: Inhibition %=(ZPE−CPD)/(ZPE−HPE)×100%*
(§6) The cell viability percentages (Viability %) and the inhibition percentages (Inhibition %) were imported into GraphPad Prism software, respectively, and curves were fitted by using nonlinear regression method to obtain the corresponding curves of the compounds, and the cytotoxicity (CC50) thereof and inhibitory activity (EC50) values against the HCV replicon thereof.
For orientation: A replicon is a self-replicating genome or part of one, used to study replication in cells.

Series [2] deals with HCV GT1b/6a NS5A chimeric replicon. The series can be described thus: Assay Example 1: activity against HCV GT1b/6a NS5A chimeric replicon. To be noted: Hepatitis C virus, Huh-7, 72 h, read-out: EC50 value GT1b/6a NS5A chimeric replicon. As to the method:
as §1, §2, §3, §4, §5, §6

Series [3] concerns HCV GT1b/3a NS5A chimeric replicon. The series can be described thus: Assay Example 1: activity against HCV GT1b/3a NS5A chimeric replicon. To be noted: Hepatitis C virus, Huh-7, 72 h, read-out: EC50 value GT1b/3a NS5A chimeric replicon. How it is done:
as §1, §2, §3, §4, §5, §6

Series [4] deals with HCV GT1b wild-type replicon. The series can be described thus: Assay Example 1: activity against HCV GT1b wild-type replicon (luciferase, transient transfection). To be noted: Hepatitis C virus, 72 h, Huh 7 cells, 3 days. As to the method: as §1, §2, §3, §4, §5, §6
Another series is described as follows: in vitro. To be noted: human; Huh 7 cells with GT1b wild-type replicon, 3 days, CellTiter-Fluor. As to the method:
as §1, §2, §3
(§7) Cell viability assay: A cell growth fluorescent titration detection reagent CellTiter-Fluor was added to the 96-well plate of the GT1b wild-type replicon. After the cells were cultured for 1 hour in a 37° C. incubator with 5% CO2, the fluorescence signal value (RFU) was detected by Envision, and the original data (RFU) was used for the calculation of the cytotoxicity of the compounds.
The cytotoxicity of the compounds was calculated by using the equation below: Cell Viability %=(CPD−HPE)/(ZPE−HPE)×100%*
as §6

Series [5] has as its system HCV GT1b/6a NS5A chimeric replicon. The series can be described thus: Assay Example 2: activity against GT1b/6a NS5A chimeric replicon. To be noted: Hepatitis C virus, Huh-7, 72 h, read-out: EC50 Value GT1b/6a-NS5A-wt. As to the method: (§8) Cells: Huh-7 cells are liver cancer cell strains (from AppTec, USA), HCV GT1a and GT1b wild type (wt) replicons, GT1b/3a, GT1b/4a, GT1b/5a and GT1b/6a NS5A chimeric replicons.
(§9) Treatment of Compound: According to the assay final concentrations of the compounds in Table 5, DMSO stock solutions of the compounds were diluted and then added to a 96-well assay plate. The final concentration of DMSO was 0.5%.
(§10) The preparation of cells: After replicon plasmid DNA was linearized with a corresponding restriction enzyme, the DNA was transcribed into RNA by using T7 RNA polymerase. Replicon RNA prepared by transcription in vitro was transfected into Huh-7 cells by electroporation. Transfected cells were seeded at a density of 10,000 cells per well into the 96-well assay plate containing the diluted compounds, and then placed in a 37° C. incubator with 5% CO2 and cultured for 3 days.
as §4
(§11) The cytotoxicity of the compounds was calculated by using the equation below: Cell Viability %=(CPD−HPE)/(ZPE−HPE)×100%* The activity of the compounds was calculated by using the equation below: Inhibition %=(ZPE−CPD)/(ZPE−HPE)×100%*
(§12) The cell viability percentages (Viability %) and the inhibition percentages (Inhibition %) were imported into GraphPad Prism software, respectively, and curves were fitted by using nonlinear regression method to obtain the corresponding curves of the compounds, and the cytotoxicity (CC50) thereof and the inhibitory activity (EC50) values against the HCV replicon thereof.

The test system of series [6] is HCV GT1b wild type (wt) replicon. Briefly: Assay Example 2: activity against HCV GT1b wild-type replicon. To be noted: Hepatitis C virus, read-out: EC50 Value GT1b-wt. How it is done:
as §8, §9, §10, §4, §11, §12

The nature of series [7]: Assay Example 2: cell viability assay (CellTiter-Fluor), GT1b wild-type replicon plate. To be noted: human, Huh-7 cells with GT1b wild-type replicon, read-out: CC50 Value GT1b-wt. As to the method:
as §8, §9, §10, §7, §11, §12

In series [8] the test system is HCV GT1b/3a NS5A chimeric replicon. The series can be described thus: Assay Example 2: activity against GT1b/3a NS5A chimeric replicon. To be noted: Hepatitis C virus, Huh-7, 72 h, read-out: EC50 Value GT1b/3a-NS5A-wt. As to the method:
as §8, §9, §10, §4, §11, §12

[9] abbreviates: 72 h, Huh-7 cells, transient transfection, 3 days.
Where [10] appears, read: Huh-7 cells transfected with HCV GT1b wild-type replicon RNA.

The term CC50 denotes the concentration giving 50% cytotoxicity.

Read-outs that look alike come from different tables or passages of the source.

In the case of `COC(=O)N[C@H](C(=O)N1CCC[C@H]1C(=O)Nc1ccc([C@H]2CC[C@H](c3ccc(NC(=O)[C@@H]4CCCN4C(=O)[C@@H](NC(=O)OC)[C@@H](C)OC)cc3)N2c2cc(F)c(N3CC[Si](C)(C)CC3)c(F)c2)cc1)[C@@H](C)OC` [Compound 1b, Methyl ((2S,2′S,3R,3′R)-((2S,2′S)-(((((2R,5R)-1-(4-(4,4-dimethylazasilinan-1-yl)-3,5-difluorophenyl)pyrrolidin-2,5-diyl)bis(4,1-phenylene))bis(azanediyl))bis(carbonyl))bis(pyrrolidin-2,1-diyl))bis (3-methoxy-1-oxobutan-1,2-diyl))dicarbamate], the EC50 was found to be 0.012 nM in [1], 0.114 nM in series [2], 0.0048 nM in [3] and 0.0017 nM in series [4]. Further, in the series “in vitro”, the CC50 is greater than 0.1 nM.

`COC(=O)N[C@H](C(=O)N1CCC[C@H]1C(=O)Nc1ccc([C@@H]2CC[C@@H](c3ccc(NC(=O)[C@@H]4CCCN4C(=O)[C@@H](NC(=O)OC)[C@@H](C)OC)cc3)N2c2ccc(N3CC[Si](C)(C)CC3)c(F)c2)cc1)[C@@H](C)OC` [Compound 2a, Methyl ((2S, 2′S, 3R, 3′R)-((2S, 2′S)-(((((2S, 5S)-1-(4-(4,4-dimethylazasilinan-1-yl)-3-fluorophenyl)pyrrolidin-2,5-diyl)bis(4,1-phenylene))bis(azanediyl))bis(carbonyl))bis(pyrrolidin-2,1-diyl))bis(3-methoxy-1-oxobutan-1,2-diyl))dicarbamate]: the EC50 in [1] came to 0.012 nM; in [2], 0.242 nM; in series [3], 0.006 nM; in [4], 0.0029 nM. In the series “in vitro”, this molecule came in with a CC50 greater than 0.1 nM.

`COC(=O)N[C@H](C(=O)N1CCC[C@H]1C(=O)Nc1ccc([C@H]2CC[C@H](c3ccc(NC(=O)[C@@H]4CCCN4C(=O)[C@@H](NC(=O)OC)[C@@H](C)OC)cc3)N2c2ccc(N3CC[Si](C)(C)CC3)c(F)c2)cc1)[C@@H](C)OC` [Compound 2b, Methyl ((2S, 2′S, 3R, 3′R)-((2S, 2′S)-(((((2R, 5R)-1-(4-(4,4-dimethylazasilinan-1-yl)-3-fluorophenyl)pyrrolidin-2,5-diyl)bis(4,1-phenylene))bis(azanediyl))bis(carbonyl))bis(pyrrolidin-2,1-diyl))bis(3-methoxy-1-oxobutan-1,2-diyl))dicarbamate]: the EC50 in [1] came out at 0.065 nM; in series [2], 0.454 nM; in series [3], 0.014 nM; in series [4] it was 0.016 nM. The same molecule gave a CC50 in “in vitro” greater than 0.1 nM.

Regarding `COC(=O)N[C@H](C(=O)N1CCC[C@H]1C(=O)Nc1ccc([C@@H]2CC[C@@H](c3ccc(NC(=O)[C@@H]4CCCN4C(=O)[C@@H](NC(=O)OC)[C@@H](C)OC)cc3)N2c2cc(F)c(N3CC[Si]4(CCCC4)CC3)c(F)c2)cc1)[C@@H](C)OC` [Compound 3a], the EC50 in [5] was 0.0045 nM; in series [6] (Huh-7, 72 h), 0.00133 nM; in series [8] it was 0.00635 nM. The CC50 at 3 days in [7] is greater than 0.2 nM.

In the case of `COC(=O)N[C@H](C(=O)N1CCC[C@H]1c1nc2cc([C@@H]3CC[C@@H](c4ccc5[nH]c([C@@H]6CCCN6C(=O)[C@@H](NC(=O)OC)[C@@H](C)OC)nc5c4)N3c3cc(F)c(N4CC[Si](C)(C)CC4)c(F)c3)ccc2[nH]1)[C@@H](C)OC` [Compound 4a], the EC50 in [1] stood at 0.0054 nM; in series [2], 0.026 nM; in [3], 0.0039 nM; in series [4], 0.011 nM. This molecule also displayed a CC50 in the series “in vitro” greater than 0.1 nM.

Turning to `COC(=O)N[C@H](C(=O)N1CCC[C@H]1c1nc2cc([C@H]3CC[C@H](c4ccc5[nH]c([C@@H]6CCCN6C(=O)[C@@H](NC(=O)OC)[C@@H](C)OC)nc5c4)N3c3cc(F)c(N4CC[Si](C)(C)CC4)c(F)c3)ccc2[nH]1)[C@@H](C)OC` [Compound 4b], the EC50 in [1] was found to be 0.0041 nM; in [2], 0.005 nM; in series [3], 0.0015 nM; in [4], 0.0059 nM. This molecule gave a CC50 in the series “in vitro” greater than 0.1 nM.

As for `COC(=O)N[C@H](C(=O)N1CCC[C@H]1c1nc2cc([C@@H]3CC[C@@H](c4ccc5[nH]c([C@@H]6CCCN6C(=O)[C@@H](NC(=O)OC)[C@@H](C)OC)nc5c4)N3c3ccc(N4CC[Si](C)(C)CC4)c(F)c3)ccc2[nH]1)[C@@H](C)OC` [Compound 5a], the EC50 in [1] was 0.017 nM; in [2] it was 0.174 nM; in series [3], 0.013 nM; in [4], 0.019 nM. The same molecule gave a half-maximal cytotoxic concentration (CC50) in “in vitro” greater than 0.1 nM.

Consider `COC(=O)N[C@H](C(=O)N1CCC[C@H]1c1nc2cc([C@H]3CC[C@H](c4ccc5[nH]c([C@@H]6CCCN6C(=O)[C@@H](NC(=O)OC)[C@@H](C)OC)nc5c4)N3c3ccc(N4CC[Si](C)(C)CC4)c(F)c3)ccc2[nH]1)[C@@H](C)OC` [Compound 5b], for which the EC50 was determined as 0.013 nM in [1], 0.016 nM in series [2], 0.0063 nM in series [3] and 0.017 nM in [4]. The molecule also showed a CC50 in “in vitro” greater than 0.1 nM.

`COC(=O)N[C@H](C(=O)N1CCC[C@H]1C(=O)Nc1ccc([C@@H]2CC[C@@H](c3ccc4nc([C@@H]5CCCN5C(=O)[C@@H](NC(=O)OC)[C@@H](C)OC)[nH]c4c3)N2c2cc(F)c(N3CC[Si](C)(C)CC3)c(F)c2)cc1)[C@@H](C)OC` [Compound 6a, Methyl ((2S,3R)-1-((S)-2-(6-((2S,5S)-1-(4-(4,4-dimethylazasilinan-1-yl)-3,5-difluorophenyl)-5-(4-((S)-1-(N-(methoxycarbonyl)-O-methyl-L-threonyl)pyrrolidin-2-formylamino)phenyl)pyrrolidin-2-yl)-1H-benzo[d]imidazol-2-yl)pyrrolidin-1-yl)-3-methoxy-1-oxobutan-2-yl)carbamate]: the EC50 in [1] turned out to be 0.014 nM; in series [2], 0.23 nM; in series [3], 0.0052 nM; in series [4] it was 0.0057 nM. For the same molecule, the CC50 in the series “in vitro” is greater than 0.1 nM.

In the case of `COC(=O)N[C@H](C(=O)N1CCCC1C(=O)Nc1ccc([C@@H]2CC[C@@H](c3ccc(-c4cnc([C@@H]5CCCN5C(=O)[C@@H](NC(=O)OC)[C@@H](C)OC)[nH]4)cc3)N2c2cc(F)c(N3CC[Si](C)(C)CC3)c(F)c2)cc1)[C@@H](C)OC` (stereo partly drawn) [Compound 8a], the EC50 in series [5] came to 0.00905 nM; in series [6] (setting [9]), 0.00208 nM; in series [8], 0.0797 nM. Moreover, the cytotoxic concentration (CC50) at 3 days in series [7] (setting [10]) is greater than 0.2 nM.

Turning to `COC(=O)N[C@H](C(=O)N1CCCC1c1nc2cc([C@H]3CC[C@H](c4ccc(-c5cnc([C@@H]6CCCN6C(=O)[C@@H](NC(=O)OC)[C@@H](C)OC)[nH]5)cc4)N3c3cc(F)c(N4CC[Si](C)(C)CC4)c(F)c3)ccc2[nH]1)[C@@H](C)OC` (stereo partly drawn) [Compound 15b], the EC50 in [6] (setting [9]) was determined as 0.00295 nM; in series [8], 0.00728 nM. For the same molecule, in [7] (setting [10]), the CC50 at 3 days was greater than 0.2 nM.
